Mutagenic call data for four compounds are collected here from PubChem BioAssay AID1259407 (Chemical Carcinogenesis Research Information System (CCRIS), 2018).

Calls of active or inactive are those of the source. No rule for the calls is given here.

For this data set, the system named is CCRIS mutagenicity, Ames/micronucleus/aberration tests. Kind of data set: CCRIS mutagenicity studies. The settings on record: Test System: AMES SALMONELLA TYPHIMURIUM
The mark [1] stands for this setting: Strain/Indicator: TA98, Metabolic Activation: NONE, Method: PREINCUBATION
Setting [2] is: Strain/Indicator: TA100, Metabolic Activation: NONE, Method: PREINCUBATION
Setting [3] is: Strain/Indicator: TA1535, Metabolic Activation: NONE, Method: PREINCUBATION
[4] abbreviates: Strain/Indicator: TA100, Metabolic Activation: RAT, LIVER, S-9, AROCLOR 1254, Method: PREINCUBATION

Consider `Cc1cccc(C#N)c1`, for which the mutagenic call is “inactive; negative” (Strain/Indicator: TA97, Metabolic Activation: HAMSTER, LIVER, S-9, AROCLOR 1254 (10%), Method: PREINCUBATION); “inactive; negative” (Strain/Indicator: TA97, Metabolic Activation: HAMSTER, LIVER, S-9, AROCLOR 1254 (30%), Method: PREINCUBATION); “inactive; negative” (Strain/Indicator: TA97, Metabolic Activation: NONE, Method: PREINCUBATION); “inactive; negative” (Strain/Indicator: TA97, Metabolic Activation: RAT, LIVER, S-9, AROCLOR 1254 (10%), Method: PREINCUBATION); “inactive; negative” (Strain/Indicator: TA97, Metabolic Activation: RAT, LIVER, S-9, AROCLOR 1254 (30%), Method: PREINCUBATION); “inactive; negative” (Strain/Indicator: TA98, Metabolic Activation: HAMSTER, LIVER, S-9, AROCLOR 1254 (10%), Method: PREINCUBATION). Further, the mutagenic call by setting is: (Strain/Indicator: TA98, Metabolic Activation: HAMSTER, LIVER, S-9, AROCLOR 1254 (30%), Method: PREINCUBATION) “inactive; negative”; under setting [1], “inactive; negative”; (Strain/Indicator: TA98, Metabolic Activation: RAT, LIVER, S-9, AROCLOR 1254 (10%), Method: PREINCUBATION) “inactive; negative”; (Strain/Indicator: TA98, Metabolic Activation: RAT, LIVER, S-9, AROCLOR 1254 (30%), Method: PREINCUBATION) “inactive; negative”; (Strain/Indicator: TA100, Metabolic Activation: HAMSTER, LIVER, S-9, AROCLOR 1254 (10%), Method: PREINCUBATION) “inactive; negative”; (Strain/Indicator: TA100, Metabolic Activation: HAMSTER, LIVER, S-9, AROCLOR 1254 (30%), Method: PREINCUBATION) “inactive; negative”. Moreover, the mutagenic call reads like this: under setting [2], “inactive; negative”; (Strain/Indicator: TA100, Metabolic Activation: RAT, LIVER, S-9, AROCLOR 1254 (10%), Method: PREINCUBATION) “inactive; negative”; (Strain/Indicator: TA100, Metabolic Activation: RAT, LIVER, S-9, AROCLOR 1254 (30%), Method: PREINCUBATION) “inactive; negative”; (Strain/Indicator: TA1535, Metabolic Activation: HAMSTER, LIVER, S-9, AROCLOR 1254 (10%), Method: PREINCUBATION) “inactive; negative”; (Strain/Indicator: TA1535, Metabolic Activation: HAMSTER, LIVER, S-9, AROCLOR 1254 (30%), Method: PREINCUBATION) “inactive; negative”; under setting [3], “inactive; negative”. For the same compound, the mutagenic call was “inactive; negative” (Strain/Indicator: TA1535, Metabolic Activation: RAT, LIVER, S-9, AROCLOR 1254 (10%), Method: PREINCUBATION) and “inactive; negative” (Strain/Indicator: TA1535, Metabolic Activation: RAT, LIVER, S-9, AROCLOR 1254 (30%), Method: PREINCUBATION).
`C1CNCCN1`: the mutagenic call runs as follows: (Strain/Indicator: TA98, Metabolic Activation: HAMSTER, LIVER, S-9, AROCLOR 1254, Method: PREINCUBATION) “inactive; negative”; under setting [1], “inactive; negative”; (Strain/Indicator: TA98, Metabolic Activation: RAT, LIVER, S-9, AROCLOR 1254, Method: PREINCUBATION) “inactive; negative”; (Strain/Indicator: TA98, Metabolic Activation: RAT, LIVER, S-9, PCB, Method: PREINCUBATION) “inactive; negative”; (Strain/Indicator: TA100, Metabolic Activation: HAMSTER, LIVER, S-9, AROCLOR 1254, Method: PREINCUBATION) “inactive; negative”; under setting [2], “inactive; negative”. For the same compound, the mutagenic call was “inactive; negative” under setting [4]; “inactive; negative” (Strain/Indicator: TA100, Metabolic Activation: RAT, LIVER, S-9, PCB, Method: PREINCUBATION); “inactive; negative” (Strain/Indicator: TA1535, Metabolic Activation: HAMSTER, LIVER, S-9, AROCLOR 1254, Method: PREINCUBATION); “inactive; negative” under setting [3]; “inactive; negative” (Strain/Indicator: TA1535, Metabolic Activation: RAT, LIVER, S-9, AROCLOR 1254, Method: PREINCUBATION); “inactive; negative” (Strain/Indicator: TA1537, Metabolic Activation: HAMSTER, LIVER, S-9, AROCLOR 1254, Method: PREINCUBATION). The mutagenic call was “inactive; negative” (Strain/Indicator: TA1537, Metabolic Activation: NONE, Method: PREINCUBATION) and “inactive; negative” (Strain/Indicator: TA1537, Metabolic Activation: RAT, LIVER, S-9, AROCLOR 1254, Method: PREINCUBATION).
Regarding `Cc1cccc2ccc3c4ccccc4ccc3c12`, the mutagenic call is “inactive; negative” (Strain/Indicator: TA100, Metabolic Activation: RAT, LIVER, MICROSOMES, 4-METHYLCHRYSENE, Method: STANDARD PLATE); “active; positive” (Strain/Indicator: TA100, Metabolic Activation: RAT, LIVER, MICROSOMES, AROCLOR 1254, Method: STANDARD PLATE); “inactive; negative” (Strain/Indicator: TA100, Metabolic Activation: RAT, LIVER, MICROSOMES, Method: STANDARD PLATE).
For `CC(=O)OCc1ccc([N+](=O)[O-])cc1`, the mutagenic call runs as follows: under setting [1], “inactive; negative”; (Strain/Indicator: TA100(NR), Metabolic Activation: NONE, Method: PREINCUBATION) “inactive; negative”; under setting [2], “active; positive”; under setting [4], “active; positive”.
